Measurements from patent US20110287026A1, “SIRT4 AND USES THEREOF” (President and Fellows of Harvard College, priority 2008, published 2011).

Tests used:
Assay type in all cases: cell-based, mouse
PPARα target gene Pdk4 = assay: Induction of PPARα target gene Pdk4 in MEFs exposed to WY14643 (quantitative RT-PCR); details: 50 μM WY14643
Experimental: Mouse embryonic fibroblasts (MEFs) were isolated on embryonic day 12.5-14.5 from heterozygous females that were mated with heterozygous males. Primary MEFs were cultured in DMEM containing 10% FBS and 0.1 mM BME and were used between passages 2 and 5.
RNA was isolated from frozen liver tissue of overnight fasted mice or from cells using Trizol (Invitrogen) according to the manufacturer's instructions and further purified using RNeasy columns (Qiagen). Amplification and detection of target and reference cDNA samples was performed on a Lightcycler 480 (Roche) using Lightcycler 480 Sybr Green I Mastermix (Roche). A standard curve was generated for all genes using serial dilutions of a pool prepared from all cDNA samples. mRNA levels of target genes were normalized using beta 2 microglobulin (B2m), peptidyl-prolyl isomerase (Ppia) and ribosomal protein 16 (Rps16) as reference genes.
To determine whether SIRT4 is a bona fide repressor of PPARα in a cell-autonomous manner, the induction of the PPARα target gene Pdk4 was examined in SIRT4^−/− and SIRT4′^+/+ mouse embryonic fibroblast (MEF) cell lines exposed to the PPARα agonist WY14643 (WY), as described above.

[1] = test system: fatty acid oxidation in primary hepatocytes; assay: Oxidation of [3H]palmitate in primary hepatocytes
Experimental: Primary hepatocytes were isolated using a two-step perfusion protocol, based on previous methods (Lin et al., (2004) Cell 119, 121-135.). Briefly, livers were perfused first with Hanks balanced salt solution (HBSS, pH 7.4), containing glucose (1.0 g/l), EDTA (0.2 g/l), HCO3 (2.1 g/l) and KCl (0.4 g/l) for 5 minutes. Next, livers were perfused for 15 min with a collagenase buffer (pH 7.4, Invitrogen). After perfusion, livers were dissected, minced, filtered, and hepatocytes purified using Percoll (Sigma) and plated (500,000 cells per well) on collagen coated 6 well plates (BD Biosciences) in DMEM (4.5 g/l glucose) containing 10% FBS, 2 mM pyruvate, 2% Pen/strep, […] and 100 nM insulin. Typical primary hepatocyte isolations yielded 12-14×10^6 cells per liver with 96%-98% cell viability (assessed by Trypan blue exclusion assay). Two hours after plating, medium was replaced with maintenance medium (DMEM with 0.2% BSA, 2 mM pyruvate, 2% Pen/strep, 0.1 mM dexamethasone and 1 nM insulin). Fatty acid oxidation assays were performed one day after isolation.
Cells were incubated overnight in culture medium containing 100 μM palmitate (C16:0) and 1 mM carnitine. In the final 2 hours of incubation, cells were pulsed with 1.7 μCi [9,10(n)-^3H]palmitic acid (GE Healthcare), and the medium was collected to analyze the released ^3H2O, formed during cellular oxidation of [^3H]palmitate. In brief, medium was TCA precipitated, supernatants were neutralized with NaOH and loaded onto ion exchange columns packed with DOWEX 1×2-400 resin (Sigma). The radioactive product was eluted with water and quantitated by liquid scintillation counting. Oxidation of [^3H]palmitate was normalized to protein content using Bio-Rad DC protein assay.
Ultimately, the up-regulation of lipid catabolism gene expression during nutrient deprivation leads to enhanced rates of fatty acid oxidation. […] To test this model, the rates of oxidation of palmitate, a saturated long chain fatty acid, were analyzed in primary MEFs and primary hepatocytes isolated from SIRT4 WT and KO mice. […]

[2] = test system: mitochondrial fatty acid oxidation in primary MEFs; assay: Oxidation of [3H]palmitate in primary MEFs; details: SIRT4 KO and WT MEFs (both cell types)
Experimental: Mouse embryonic fibroblasts (MEFs) were isolated on embryonic day 12.5-14.5 from heterozygous females that were mated with heterozygous males. Primary MEFs were cultured in DMEM containing 10% FBS and 0.1 mM BME and were used between passages 2 and 5. Cells were incubated overnight in culture medium containing 100 μM palmitate (C16:0) and 1 mM carnitine. In the final 2 hours of incubation, cells were pulsed with 1.7 μCi [9,10(n)-^3H]palmitic acid (GE Healthcare), and the medium was collected to analyze the released ^3H2O, formed during cellular oxidation of [^3H]palmitate. In brief, medium was TCA precipitated, supernatants were neutralized with NaOH and loaded onto ion exchange columns packed with DOWEX 1×2-400 resin (Sigma). The radioactive product was eluted with water and quantitated by liquid scintillation counting. Oxidation of [^3H]palmitate was normalized to protein content using Bio-Rad DC protein assay. […] To test this model, the rates of oxidation of palmitate, a saturated long chain fatty acid, were analyzed in primary MEFs and primary hepatocytes isolated from SIRT4 WT and KO mice. The CPT1a inhibitor, etomoxir, (Baht and Saggerson, 1989) was used to specifically block mitochondrial import of fatty acids.

Compound: Cc1cccc(Nc2cc(Cl)nc(SCC(=O)O)n2)c1C [WY14643]
- stimulation of Pdk4 expression compared with WT cells (PPARα target gene Pdk4; MEFs lacking SIRT4): more than doubled
- increase in Pdk4 expression (PPARα target gene Pdk4; wild-type MEFs): 2 fold

Compound: NC(=O)C1CCCc2c1[nH]c1ccc(Cl)cc21 (stereo not drawn) [Ex 527]
- level of Fatty Acid Oxidation ([1]; SIRT4 KO hepatocytes): significantly reduced
- rate of Fatty Acid Oxidation ([1]; WT hepatocytes): did not significantly alter

Compound: CCOC(=O)[C@@]1(CCCCCCOc2ccc(Cl)cc2)CO1 [etomoxir]
- mitochondrial fatty acid oxidation ([3H]palmitate) ([1]; both WT and SIRT4 KO hepatocytes): effectively blocked mitochondrial fatty acid oxidation
- fatty acid oxidation ([3H]palmitate) [2]: inhibited fatty acid oxidation strongly
